Results: publication PMC11220031, “Structural basis for the inhibition mechanism of LAT1-4F2hc complex by JPH203” (Cell Discovery, 2024)
Positions count from the first letter of the chain named.

How the values were obtained:
Test in all cases: microscale thermophoresis (MST)
Details in all cases: read-out: binding affinity
[1] = biological target: T1, LAT2–4F2hc complex (Homo sapiens, UniProt Q9UHI5, F250Y)
T1 construct: gene SLC7A8; LAT2–4F2hc heteromeric complex used for MST; construct, host and tags only in supplement; with Amino acid transporter heavy chain SLC3A2 (4F2 cell-surface antigen heavy chain)
T1 sequence (Q9UHI5 1-535 F250Y): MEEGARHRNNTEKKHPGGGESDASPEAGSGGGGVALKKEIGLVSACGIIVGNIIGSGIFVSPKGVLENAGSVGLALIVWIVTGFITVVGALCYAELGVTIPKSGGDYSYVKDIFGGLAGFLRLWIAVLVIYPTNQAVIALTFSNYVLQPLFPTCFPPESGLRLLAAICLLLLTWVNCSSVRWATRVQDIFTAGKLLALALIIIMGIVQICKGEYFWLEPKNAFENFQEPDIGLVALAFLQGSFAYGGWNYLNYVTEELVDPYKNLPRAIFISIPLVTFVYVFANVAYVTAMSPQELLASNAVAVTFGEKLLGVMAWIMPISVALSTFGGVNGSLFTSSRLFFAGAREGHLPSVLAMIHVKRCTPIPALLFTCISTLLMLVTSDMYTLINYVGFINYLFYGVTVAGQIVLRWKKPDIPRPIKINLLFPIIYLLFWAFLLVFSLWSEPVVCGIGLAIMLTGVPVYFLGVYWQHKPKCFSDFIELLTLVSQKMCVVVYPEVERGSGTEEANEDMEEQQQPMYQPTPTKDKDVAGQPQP
T1 sequence (P08195 2-529 partner): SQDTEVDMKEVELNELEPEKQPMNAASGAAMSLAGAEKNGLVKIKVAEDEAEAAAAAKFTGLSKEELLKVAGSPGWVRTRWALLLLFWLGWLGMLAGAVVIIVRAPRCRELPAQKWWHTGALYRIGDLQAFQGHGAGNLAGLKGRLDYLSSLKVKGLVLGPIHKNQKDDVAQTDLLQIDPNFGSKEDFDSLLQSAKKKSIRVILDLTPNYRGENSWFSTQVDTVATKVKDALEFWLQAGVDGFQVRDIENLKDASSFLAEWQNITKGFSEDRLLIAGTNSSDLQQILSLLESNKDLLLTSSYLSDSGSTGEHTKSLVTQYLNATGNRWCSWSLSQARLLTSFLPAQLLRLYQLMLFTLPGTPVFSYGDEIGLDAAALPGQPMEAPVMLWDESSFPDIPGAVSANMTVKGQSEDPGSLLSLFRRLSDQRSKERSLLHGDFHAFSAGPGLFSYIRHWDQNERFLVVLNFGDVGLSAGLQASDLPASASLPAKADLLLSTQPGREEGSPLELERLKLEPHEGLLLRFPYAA

[2] = biological target: T2, LAT2–4F2hc complex (Homo sapiens, UniProt Q9UHI5, V391F)
T2 construct: gene SLC7A8; LAT2–4F2hc heteromeric complex used for MST; construct, host and tags only in supplement; with Amino acid transporter heavy chain SLC3A2 (4F2 cell-surface antigen heavy chain)
T2 sequence (Q9UHI5 1-535 V391F): T1 sequence (Q9UHI5 1-535 F250Y) with Y250F, V391F
T2 sequence (P08195 2-529 partner): T1 sequence (P08195 2-529 partner)

[3] = biological target: T3, LAT1–4F2hc complex (Homo sapiens, UniProt Q01650, Y259F)
T3 construct: gene SLC7A5; full-length LAT1–4F2hc heteromeric complex, purified by size-exclusion chromatography; host and tags only in supplement; with Amino acid transporter heavy chain SLC3A2 (4F2 cell-surface antigen heavy chain)

[4] = biological target: T4, LAT1–4F2hc complex (Homo sapiens, UniProt Q01650, F400V)
T4 construct: gene SLC7A5; full-length LAT1–4F2hc heteromeric complex, purified by size-exclusion chromatography; host and tags only in supplement; with Amino acid transporter heavy chain SLC3A2 (4F2 cell-surface antigen heavy chain)

[5] = biological target: T5, LAT1–4F2hc complex (Homo sapiens, UniProt Q01650)
T5 construct: gene SLC7A5; full-length LAT1–4F2hc heteromeric complex, purified by size-exclusion chromatography; host and tags only in supplement; with Amino acid transporter heavy chain SLC3A2 (4F2 cell-surface antigen heavy chain)

[6] = biological target: T6, LAT2–4F2hc complex (Homo sapiens, UniProt Q9UHI5)
T6 construct: gene SLC7A8; LAT2–4F2hc heteromeric complex used for MST; construct, host and tags only in supplement; with Amino acid transporter heavy chain SLC3A2 (4F2 cell-surface antigen heavy chain)
T6 sequence (Q9UHI5 1-535): T1 sequence (Q9UHI5 1-535 F250Y) with Y250F
T6 sequence (P08195 2-529 partner): T1 sequence (P08195 2-529 partner)

T4 sequence (Q01650 2-507 F400V, one chain of several): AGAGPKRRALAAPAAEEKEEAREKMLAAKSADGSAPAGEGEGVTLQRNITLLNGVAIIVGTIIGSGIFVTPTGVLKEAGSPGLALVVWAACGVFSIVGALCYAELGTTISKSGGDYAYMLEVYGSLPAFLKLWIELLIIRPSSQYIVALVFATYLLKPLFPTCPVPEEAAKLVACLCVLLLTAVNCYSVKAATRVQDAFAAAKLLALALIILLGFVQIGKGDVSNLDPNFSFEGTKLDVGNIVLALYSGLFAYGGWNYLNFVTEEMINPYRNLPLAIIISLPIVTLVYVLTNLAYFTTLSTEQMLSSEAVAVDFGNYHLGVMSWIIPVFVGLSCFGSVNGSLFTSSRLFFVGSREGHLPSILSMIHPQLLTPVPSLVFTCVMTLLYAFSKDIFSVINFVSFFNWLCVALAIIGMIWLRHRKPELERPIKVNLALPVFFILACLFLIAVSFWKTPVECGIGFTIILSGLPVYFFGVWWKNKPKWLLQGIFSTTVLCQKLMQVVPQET
T3 sequence (Q01650 2-507 Y259F, one chain of several): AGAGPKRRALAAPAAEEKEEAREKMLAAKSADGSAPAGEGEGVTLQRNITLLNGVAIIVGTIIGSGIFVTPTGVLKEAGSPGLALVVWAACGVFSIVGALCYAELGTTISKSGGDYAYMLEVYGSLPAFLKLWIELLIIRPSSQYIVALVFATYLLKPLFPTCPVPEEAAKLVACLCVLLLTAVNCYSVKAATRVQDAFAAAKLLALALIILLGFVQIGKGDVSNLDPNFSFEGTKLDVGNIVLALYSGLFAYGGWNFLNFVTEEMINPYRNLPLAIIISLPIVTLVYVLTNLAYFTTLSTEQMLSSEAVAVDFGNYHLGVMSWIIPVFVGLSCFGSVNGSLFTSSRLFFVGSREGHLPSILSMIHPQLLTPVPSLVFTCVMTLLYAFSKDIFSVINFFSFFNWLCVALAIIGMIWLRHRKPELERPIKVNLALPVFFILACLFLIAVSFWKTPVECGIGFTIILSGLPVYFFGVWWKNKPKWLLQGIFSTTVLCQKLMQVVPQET
T5 sequence (Q01650 2-507, one chain of several): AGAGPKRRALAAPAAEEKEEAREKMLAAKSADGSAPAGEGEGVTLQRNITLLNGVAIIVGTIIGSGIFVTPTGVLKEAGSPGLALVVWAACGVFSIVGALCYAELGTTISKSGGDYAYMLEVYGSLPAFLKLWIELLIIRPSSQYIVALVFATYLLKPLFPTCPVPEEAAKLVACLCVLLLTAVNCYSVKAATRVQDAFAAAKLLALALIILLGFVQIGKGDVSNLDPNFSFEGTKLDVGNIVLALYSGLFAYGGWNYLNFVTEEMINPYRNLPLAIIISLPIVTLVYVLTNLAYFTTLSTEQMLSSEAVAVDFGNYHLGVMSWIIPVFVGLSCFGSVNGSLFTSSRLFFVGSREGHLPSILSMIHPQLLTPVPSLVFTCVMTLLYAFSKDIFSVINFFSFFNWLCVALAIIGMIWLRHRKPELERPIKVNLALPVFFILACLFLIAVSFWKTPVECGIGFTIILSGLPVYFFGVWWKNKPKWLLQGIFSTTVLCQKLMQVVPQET

With `Nc1cc(COc2c(Cl)cc(C[C@H](N)C(=O)O)cc2Cl)c2oc(-c3ccccc3)nc2c1` [JPH203] the Kd [1] was 2.55 ± 0.96 µM, the Kd [2] was 1.78 ± 0.65 µM and the Kd [3] was 3.81 ± 1.26 µM. The Kd [4] was 6.21 ± 1.58 µM, the Kd [5] was 1.48 ± 0.28 µM and the Kd [6] was 4.51 ± 1.35 µM.
